≈ marks a conversion by molar mass, not a printed value. *1 amine or outer side, *2 acyl side, *3 side chain or, on linkers, in order; H or OH if unused. Where a SMILES comes first, the peptide text is derived from it. [ ]: non-standard residue; d: D form. The star is where a group is joined. X2 = O=C(COC1CCCCCc2c1nnn2[C@@H]1O[C@H](CO)[C@H](O)[C@H](O)[C@H]1O)*; NH(1-deoxy-D-glucityl) = OC[C@@H](O)[C@@H](O)[C@H](O)[C@@H](O)CN*; Dolaproine = CO[C@@H]([C@@H]1CCCN1)[C@@H](C)C(=O)O; X3 = O=C(COC1CCCCCc2c1nnn2CCOCCOCCOCCOCCOCCO)*; Dil = CC[C@H](C)[C@H](NC)[C@@H](CC(=O)O)OC; PABC = O=C(OCc1ccc(N[*:1])cc1)[*:2]; DBCO = C1#Cc2ccccc2N(*)Cc2ccccc21; X1 = C[C@@H](N*)[C@@H](O)c1ccccc1; Cit = NC(=O)NCCC[C@H](N)C(=O)O; PEG4 = NCCOCCOCCOCCOCCC(=O)O; Suc = O=C(CCC(=O)[*:2])[*:1]; NMeV = CN[C@H](C(=O)O)C(C)C

Here are results for six molecules from patent publication US20240408223A1 (REGENERON PHARMACEUTICALS, INC., priority 2017, published 2024).

Data set [1] in a line: pH stability in buffers, determined by LC-MS. It counts as physicochemical. On the procedure: pH stability was assessed as follows. 0.1 mg of sample was dissolved into 0.2-0.3 mL of DMSO, and the resulting solution was added dropwise into different pH buffers (1 mL) while maintain clear solutions during testing time period. The samples were collected from several time points (e.g., over 72 hours), and pH stability was determined by LC-MS. pH buffer was prepared as follows: pH 8.0 sodium borate buffer: Add 9.534 g Sodium borate decahydrate, 1.461 g Sodium chloride, and 0.393 g DTPA to 900 mL distilled water, make sure all powers dissolve completely, then make final volume to 1 L by adding water. pH 7.4 sodium borate buffer: Add […], 9.534 g Sodium borate decahydrate, 1.461 g Sodium chloride, and 0.393 g DTPA to 900 mL distilled water, make sure all powers dissolve completely, then make final volume to 1 L by adding water. pH 5.0 succinate acid buffer: Add 10 mM succinate acid to 150 mL distilled water, and then change the pH to pH5.0 by adding 0.5M NaOH, then make final volume to 250 mL by adding water. pH 7.4 PBS buffer: commercially available. Stability was assessed at 72 hours by LCMS.

For the next data set, the target named is Human liver Cathepsin B (Homo sapiens, UniProt P07858). Put plainly: Cathepsin B cleavage assay of linker-payloads.
A short description of data set [2]: Solubility test in water, LCMS against standard curve. To be noted: Solubility (mg/mL), in water.
Procedure: (§1) The DMSO solution (1 mg/mL, 0.5 mL) was diluted with water (4.5 mL) to generate solution A (0.1 mg/mL, 5 mL, 0.5 mg). Solution A (0.1 mg/mL, 0.5 mL) was diluted with water (4.5 mL) to generate solution B (0.01 mg/mL, 5 mL, 0.05 mg). Solution B (0.01 mg/mL, 0.5 mL) was diluted with water (4.5 mL) to generate solution C (1 μg/mL, 5 mL, 5 μg). Solution C (1 μg/mL, 0.5 mL) was diluted with water (4.5 mL) to generate solution D (0.1 μg/mL, 5 mL, 0.5 μg). The testing sample (0.05 mg) was suspended in water (1 mL), and was sonicated for 5-30 min to dissolve the sample. If no clear solution was observed, the resulting suspension was centrifuged and the clear supernatant solution was collected for analysis. All the standard solutions A, B, C, D and sample solutions were tested using same method on the same LC-MS instrument. Solubility was assessed by LCMS and calculated based on a standard curve.
Setting [3] is: pH7.4 and 8 buffer, RT, Table 3-1.

Procedure for Human liver Cathepsin B: For the assay, the linker-payload stock solution (10 mM of linker-payload in DMSO) was added into a solution of 100 mM NaOAc, 10 mM dithiothreitol, at pH5 to obtain a 50 μM substrate solution. […] The Cathepsin B and substrate solution was mixed with and without 10 mM of a Cathepsin B inhibitor (CA074; APE Bio, Cat #A1926), and incubated at 37° C. for 4 hours. Following the 4 hour incubation, acetic acid and then acetonitrile were added to stop the reaction. The quenched samples then underwent centrifugation at 14,000 rpm. Aliquots of the resultant supernatants were then diluted with equal volume of water and analyzed by LC/MS to determine the amount of payload released.
Procedure for physchem: as §1

Take `CC[C@H](C)[C@@H]([C@@H](CC(=O)N1CCC[C@H]1[C@H](OC)[C@@H](C)C(=O)N[C@H](C)[C@@H](O)c1ccccc1)OC)N(C)C(=O)[C@@H](NC(=O)[C@H](C(C)C)N(C)C(=O)OCc1ccc(NC(=O)[C@H](CCCNC(N)=O)NC(=O)[C@@H](NC(=O)[C@@H](CCCCNC(=O)COC2CCCCCc3c2nnn3CCOCCOCCOCCOCCOCCO)NC(=O)CCOCCOCCOCCOCCNC(=O)CCC(=O)N2Cc3ccccc3C#Cc3ccccc32)C(C)C)cc1)C(C)C` (some centres unmarked) [1a] ({DBCO-Suc-PEG4}-[dK](X3)V[Cit][PABC][NMeV]V[Dil][Dolaproine]-X1): the “pH Stability” value in data set [1] (setting [3]) was “Y (stable in pH7.4 and 8 buffer at RT for more than 3 days)”. For the same molecule, the concentration in solution in “physchem” (solubility) came to 170 µg/mL (≈ 75.3 µM).
On to `CC[C@H](C)[C@@H]([C@@H](CC(=O)N1CCC[C@H]1[C@H](OC)[C@@H](C)C(=O)N[C@H](C)[C@@H](O)c1ccccc1)OC)N(C)C(=O)[C@@H](NC(=O)[C@H](C(C)C)N(C)C(=O)OCc1ccc(NC(=O)[C@H](CCCNC(N)=O)NC(=O)[C@@H](NC(=O)CCOCCOCCOCCOCCNC(=O)CCC(=O)N2Cc3ccccc3C#Cc3ccccc32)C(C)C)cc1)C(C)C` [10d] ({DBCO-Suc-PEG4}-V[Cit][PABC][NMeV]V[Dil][Dolaproine]-X1), for which, in data set [1] (setting [3]), the “pH Stability” value was “Y (stable in pH7.4 and 8 buffer at RT for more than 3 days)”. The molecule further gave a solubility in the data set “physchem” below 100 µg/mL.
With `CC[C@H](C)[C@@H]([C@@H](CC(=O)N1CCC[C@H]1[C@H](OC)[C@@H](C)C(=O)N[C@H](C)[C@@H](O)c1ccccc1)OC)N(C)C(=O)[C@@H](NC(=O)[C@H](C(C)C)N(C)C(=O)OCc1ccc(NC(=O)[C@H](CCCNC(N)=O)NC(=O)[C@@H](NC(=O)[C@@H](CCCCNC(=O)COC2CCCCCc3c2nnn3[C@@H]2O[C@H](CO)[C@H](O)[C@H](O)[C@H]2O)NC(=O)CCOCCOCCOCCOCCNC(=O)CCC(=O)N2Cc3ccccc3C#Cc3ccccc32)C(C)C)cc1)C(C)C` (some centres unmarked) [Ie-1] ({DBCO-Suc-PEG4}-[dK](X2)V[Cit][PABC][NMeV]V[Dil][Dolaproine]-X1), the “pH Stability” value in data set [1] (setting [3]) was “Y (stable in pH7.4 and 8 buffer at RT for more than 3 days)”. For the same molecule, the “CapB cleavage rate (%) at 4 hrs” value on Human liver Cathepsin B (Table 1D) is 72%. In the data set “physchem”, this molecule displayed a solubility of 400 µg/mL (≈ 186 µM).
As to `CCCC1O[C@@H]2C[C@H]3[C@@H]4C[C@H](F)C5=CC(=O)C=C[C@]5(C)[C@@]4(F)[C@@H](O)C[C@]3(C)[C@]2(C(=O)COc2ccc(NC(=O)OCc3ccc(NC(=O)[C@H](CCCNC(N)=O)NC(=O)[C@@H](NC(=O)CCOCCOCCOCCOCCNC(=O)CCC(=O)N4Cc5ccccc5C#Cc5ccccc54)C(C)C)cc3)cc2)O1` (some centres unmarked) [10c], in data set [1] (setting [3]), the “pH Stability” value was “Y (stable in pH7.4 and 8 buffer at RT for more than 3 days)”. In addition, the “CapB cleavage rate (%) at 4 hrs” value at Human liver Cathepsin B (Table 1D) is listed as below 5%. The solubility was below 10 µg/mL in “physchem” (Solubility) and below 100 µg/mL in “physchem” (Solubility (mg/mL)).
As for `CCCC1O[C@@H]2C[C@H]3[C@@H]4C[C@H](F)C5=CC(=O)C=C[C@]5(C)[C@@]4(F)[C@@H](O)C[C@]3(C)[C@]2(C(=O)COc2ccc(NC(=O)[C@H](C)NC(=O)[C@@H](NC(=O)[C@@H](CCCCNC(=O)COC3CCCCCc4c3nnn4CCOCCOCCOCCOCCC(=O)NCCS(=O)(=O)O)NC(=O)CCOCCOCCOCCOCCNC(=O)CCC(=O)N3Cc4ccccc4C#Cc4ccccc43)C(C)C)cc2)O1` (some centres unmarked) [1j], the “pH Stability” value is “Y (stable in pH7.4 and 8 buffer at RT for more than 3 days)” in data set [1] (setting [3]); “Y (stable in pH7.4 or 8 buffer at room temperature for more than 3 days)” in data set [1] (pH7.4 or 8 buffer, room temperature, Table 3). The “CapB cleavage rate (%) at 4 hrs” value on Human liver Cathepsin B (Table 1C) and on Human liver Cathepsin B (Table 1D) was 30.8% each time. Also, the solubility in data set [2] (Table 3) and in data set [2] (Table 3-1) was above 10000 µg/mL each time.
Take `CC[C@H](C)[C@@H]([C@@H](CC(=O)N1CCC[C@H]1[C@H](OC)[C@@H](C)C(=O)N[C@H](C)[C@@H](O)c1ccccc1)OC)N(C)C(=O)[C@@H](NC(=O)[C@H](C(C)C)N(C)C(=O)OCc1ccc(NC(=O)[C@H](CCCNC(N)=O)NC(=O)[C@@H](NC(=O)[C@@H](CCC(=O)NC[C@H](O)[C@@H](O)[C@H](O)[C@H](O)CO)NC(=O)CCOCCOCCOCCOCCNC(=O)CCC(=O)N2Cc3ccccc3C#Cc3ccccc32)C(C)C)cc1)C(C)C` [Ig] ({DBCO-Suc-PEG4}-[dE](NH(1-deoxy-D-glucityl))V[Cit][PABC][NMeV]V[Dil][Dolaproine]-X1): the “pH Stability” value in data set [1] (setting [3]) is “Y (stable in pH7.4 and 8 buffer at RT for more than 3 days)”. Also, the “CapB cleavage rate (%) at 4 hrs” value on Human liver Cathepsin B (Table 1D) is given as 70%. In “physchem”, this molecule returned a solubility of 280 µg/mL (≈ 144 µM).

By solubility is commonly meant the concentration that dissolves in the medium under given conditions. Lower therefore signals a poorly soluble substance.
